Results as given in patent US20230085307A1, “PYRIDAZINONE COMPOUND AND HERBICIDE” (NISSAN CHEMICAL CORPORATION, priority 2019, published 2023).

How the values were obtained:
[1] = test system: late watergrass; assay: Test Example 1: herbicidal activity, application before weed generation under submerged conditions (Table 16, symbol A); format: in vivo, late watergrass (Echinochloa oryzicola); conditions: amount of applied herbicide 320 g/ha
How it was run: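 Submerged Wagner pots (alluvial soil, 4 cm water) sown with weed seeds and planted with 2.5-leaf rice seedlings; emulsifiable concentrate diluted in water applied to water surface on sowing day. Held in greenhouse at 25-30 °C; injury scored 0-5 by herbicidal rate after three weeks.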

[2] = test system: late watergrass; assay: Test Example 2: herbicidal activity, application during weed generation under submerged conditions (Table 17, symbol A); format: in vivo, late watergrass (Echinochloa oryzicola); conditions: AAH 320 g/ha; application during weed generation, submerged conditions
How it was run: (§1)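 Herbicide emulsion, diluted with water to the chosen amount, is applied onto 4 cm floodwater over alluvial soil where the weeds were co-sown and raised at 25–30° C. Application timing: 1–2 leaves. Assessment: three weeks afterwards.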

[3] = test system: Japanese bulrush; assay: Test Example 2: herbicidal activity, application during weed generation under submerged conditions (Table 17, symbol B); format: in vivo, Japanese bulrush (Schoenoplectus juncoides); conditions: AAH 320 g/ha; application during weed generation, submerged conditions
How it was run: as §1

[4] = test system: oval-leafed pondweed; assay: Test Example 2: herbicidal activity, application during weed generation under submerged conditions (Table 17, symbol C); format: in vivo, oval-leafed pondweed (Monochoria vaginalis); conditions: AAH 320 g/ha; application during weed generation, submerged conditions
How it was run: as §1

[5] = test system: barnyard grass; assay: Test Example 3: herbicidal effect by foliage application, Wagner pot (Table 18, symbol H); format: in vivo, barnyard grass (Echinochloa crus-galli)
How it was run: (§2)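 Plants were sown in alluvial soil held under 0.1–0.5 cm standing water and grown 14 days in a greenhouse at 25–30 °C. An emulsifiable formulation, water-diluted to the set dose, was then sprayed onto the foliage, and effects were scored three weeks later using previously defined criteria.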

[6] = test system: rice flat sedge; assay: Test Example 3: herbicidal effect by foliage application, Wagner pot (Table 18, symbol E); format: in vivo, rice flat sedge (Cyperus iria)
How it was run: as §2

[7] = test system: green foxtail; assay: Test Example 4: herbicidal effect by soil treatment (Table 19, symbol G); format: in vivo, green foxtail (Setaria viridis); conditions: amount of applied herbicide 320 g/ha
How it was run: (§3)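 Herbicidal effect was rated 3 weeks after treatment, using the scoring criteria of an earlier test. The compound, formulated as an emulsion and diluted in water to a set herbicide amount, had been sprayed uniformly on soil over freshly sown seeds. Growth took place in a greenhouse at 25° C. to 30° C.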

[8] = test system: Italian ryegrass; assay: Test Example 4: herbicidal effect by soil treatment (Table 19, symbol K); format: in vivo, Italian ryegrass (Lolium multiflorum); conditions: amount of applied herbicide 320 g/ha
How it was run: as §3

[9] = test system: windgrass; assay: Test Example 4: herbicidal effect by soil treatment (Table 19, symbol L); format: in vivo, windgrass (Apera spica-venti); conditions: amount of applied herbicide 320 g/ha
How it was run: as §3

[10] = test system: chickweed; assay: Test Example 4: herbicidal effect by soil treatment (Table 19, symbol P); format: in vivo, common chickweed (Stellaria media); conditions: amount of applied herbicide 320 g/ha
How it was run: as §3

[11] = test system: persian speedwell; assay: Test Example 4: herbicidal effect by soil treatment (Table 19, symbol R); format: in vivo, Persian speedwell (Veronica persica); conditions: amount of applied herbicide 320 g/ha
How it was run: as §3

[12] = test system: southern crabgrass; assay: Test Example 5: herbicidal effect by foliage application, plastic box (Table 20, symbol F); format: in vivo, southern crabgrass (Digitaria ciliaris); conditions: foliage application, 320 g/ha, three weeks after application
How it was run: (§4)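 Foliar spray test: emulsion formulation diluted in water to a set application rate, sprayed onto 14-day-old plants raised in diluvial soil at 25° C to 30° C under glass. Both herbicidal effect and crop effect rated visually three weeks later.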

[13] = test system: green foxtail; assay: Test Example 5: herbicidal effect by foliage application, plastic box (Table 20, symbol G); format: in vivo, green foxtail (Setaria viridis); conditions: foliage application, 320 g/ha, three weeks after application
How it was run: as §4

[14] = test system: Italian ryegrass; assay: Test Example 5: herbicidal effect by foliage application, plastic box (Table 20, symbol K); format: in vivo, Italian ryegrass (Lolium multiflorum); conditions: foliage application, 320 g/ha, three weeks after application
How it was run: as §4

[15] = test system: windgrass; assay: Test Example 5: herbicidal effect by foliage application, plastic box (Table 20, symbol L); format: in vivo, windgrass (Apera spica-venti); conditions: foliage application, 320 g/ha, three weeks after application
How it was run: as §4

[16] = test system: lambsquarters; assay: Test Example 5: herbicidal effect by foliage application, plastic box (Table 20, symbol O); format: in vivo, lambsquarters (Chenopodium album); conditions: foliage application, 320 g/ha, three weeks after application
How it was run: as §4

[17] = test system: persian speedwell; assay: Test Example 5: herbicidal effect by foliage application, plastic box (Table 20, symbol R); format: in vivo, Persian speedwell (Veronica persica); conditions: foliage application, 320 g/ha, three weeks after application
How it was run: as §4

[18] = amount of applied herbicide 320 g/ha

| SMILES | Herbicidal effect, A: late watergrass [1] | herbicidal effect rating, A: late watergrass [2] | herbicidal effect rating, B: Japanese bulrush [3] | herbicidal effect rating, C: oval-leafed pondweed [4] | G: green foxtail, herbicidal effect grade [7] | K: Italian ryegrass, herbicidal effect grade [8] | L: windgrass, herbicidal effect grade [9] | P: chickweed, herbicidal effect grade [10] | R: persian speedwell, herbicidal effect grade [11] | further results |
| --- | --- | --- | --- | --- | --- | --- | --- | --- | --- | --- |
| COc1ccccc1-c1sc2cc(OCC(F)(F)F)ccc2c1-c1c(O)c(C)nn(C)c1=O [Compound No. 3-116, 5-hydroxy-4-(2-(2-methoxyphenyl)-6-(2,2,2-trifluoroethoxy)benzo[b]thiophen-3-yl)-2,6-di methylpyridazin-3 (2H)-one] | 5 (Herbicidal rate of 90% or more (almost completely withered)) | 4 (Herbicidal rate of 70% or more and less than 90%) | 3 (Herbicidal rate of 40% or more and less than 70%) | 4 (Herbicidal rate of 70% or more and less than 90%) | 5 (Herbicidal rate of 90% or more (almost completely withered)) | 5 (Herbicidal rate of 90% or more (almost completely withered)) | 4 (Herbicidal rate of 70% or more and less than 90%) | 4 (Herbicidal rate of 70% or more and less than 90%) | 5 (Herbicidal rate of 90% or more (almost completely withered)) | herbicidal effect on barnyard grass (H) ([5]; 320 g/ha): 5 (Herbicidal rate of 90% or more (almost completely withered)); herbicidal effect on rice flat sedge (E) ([6]; 320 g/ha): 5 (Herbicidal rate of 90% or more (almost completely withered)); F: southern crabgrass, herbicidal effect grade [12]: 5 (Herbicidal rate of 90% or more (almost completely withered)); G: green foxtail, herbicidal effect grade [13]: 5 (Herbicidal rate of 90% or more (almost completely withered)); K: Italian ryegrass, herbicidal effect grade [14]: 5 (Herbicidal rate of 90% or more (almost completely withered)); L: windgrass, herbicidal effect grade [15]: 5 (Herbicidal rate of 90% or more (almost completely withered)); O: lambsquarters, herbicidal effect grade [16]: 5 (Herbicidal rate of 90% or more (almost completely withered)); R: persian speedwell, herbicidal effect grade [17]: 5 (Herbicidal rate of 90% or more (almost completely withered)) |
| COc1ccccc1-c1sc2c(Cl)c(OC)ccc2c1-c1c(O)c(C)nn(C)c1=O [Compound No. 7-001, 4-(7-chloro-6-methoxy-2-(2-methoxyphenyl)benzo[b]thiophen-3-yl)-5-hydroxy-2,6-dimeth ylpyridazin-3-(2H)-one] | 3 (Herbicidal rate of 40% or more and less than 70%) | 3 (Herbicidal rate of 40% or more and less than 70%) | 3 (Herbicidal rate of 40% or more and less than 70%) | 3 (Herbicidal rate of 40% or more and less than 70%) | 0 (Herbicidal rate of 5% or less (almost no effect)) | 3 (Herbicidal rate of 40% or more and less than 70%) | 0 (Herbicidal rate of 5% or less (almost no effect)) | 5 (Herbicidal rate of 90% or more (almost completely withered)) | 5 (Herbicidal rate of 90% or more (almost completely withered)) | Herbicidal effect on H (barnyard grass), foliage application [5, 18]: 5 (Herbicidal rate of 90% or more (almost completely withered)); Herbicidal effect on E (rice flat sedge), foliage application [6, 18]: 4 (Herbicidal rate of 70% or more and less than 90%); herbicidal effect on southern crabgrass (F) [12]: 0 (Herbicidal rate of 5% or less (almost no effect)); herbicidal effect on green foxtail (G) [13]: 4 (Herbicidal rate of 70% or more and less than 90%); herbicidal effect on Italian ryegrass (K) [14]: 5 (Herbicidal rate of 90% or more (almost completely withered)); herbicidal effect on windgrass (L) [15]: 5 (Herbicidal rate of 90% or more (almost completely withered)); herbicidal effect on lambsquarters (O) [16]: 4 (Herbicidal rate of 70% or more and less than 90%); herbicidal effect on persian speedwell (R) [17]: 5 (Herbicidal rate of 90% or more (almost completely withered)) |
